≈ marks a conversion by molar mass, not a printed value. Where a name gives a salt, the structure may show the parent alone.
Key:
[1] = system: C. albicans IFM 40009; assay: In vivo activities against the Candida albicans murine model; details: male ICR mice, C. albicans IFM 40009 3×10^6 cells/mouse i.v.; 1 mg/kg intravenously once daily for 4 days; observed 14 days; ***P < 0.001 relative to Infection control
Method: Four-week-old male ICR mice were fasted for 6 hours. The mice were inoculated at 3×10^6 cells/mouse of C. albicans IFM 40009 into the tail vein. The infection control group and the drug-treated group consisted of 10 and 5 animals, respectively. The compound of Example 1 and the parent compound were dissolved in 20% polyethylene glycol 200. The drug solutions were intravenously administered at the dose of 1 mg/kg once daily for 4 consecutive days after infection. […] Paired comparison of duration of survival between the infection control and drug-treated groups were analyzed by Log-Rank test.

[2] = Aqueous solubility comparison; assay type: physicochemical; details: water (aqueous solubility), parent compound in the form of a free base
From the text: The compound obtained in Example 1 was compared in aqueous solubility with a parent (non-phosphorylated) compound (in the form of a free base).

Row | melting point [°C] | Structure (SMILES) | Average surviving days [1] | solubility [2] [µg/mL]
1 | – | CCS(=O)(=O)C(F)(F)C(O)(Cn1cncn1)c1ccc(F)cc1F (single isomer, unassigned; (-)) [Parent compound, (−)-2-(2,4-difluorophenyl)-1-(ethylsulfonyl)-1,1-difluoro-3-(1H-1,2,4-triazol-1-yl)-2-propanol, reference compound] | 14.0*** days | 500 (≈ 1360 µM)
2 | 216 to 218 | CS(=O)(=O)C(F)(F)C(Cn1cncn1)(OP(=O)(O)O)c1ccc(F)cc1F (centres unmarked) (as salt: phosphate) | – | –
3 | – | CCS(=O)(=O)C(F)(F)C(Cn1cncn1)(OP(=O)(O)O)c1ccc(F)cc1F (single isomer, unassigned; (+)) [Example 1, (+)-1-(2,4-difluorophenyl)-2-(ethylsulfonyl)-2,2-difluoro-1-(1H-1,2,4-triazole-1-ylmethyl)ethyl Dihydrogen Phosphate] | 14.0*** days | 4800

From patent US6528500B1, “Azole derivatives or salts thereof” (SSP Co., Ltd., priority 1999, dated 2003)
